Laboratory results taken from ChEMBL document CHEMBL3132847, “Pseudopeptides with a centrally positioned alkene-based disulphide bridge mimetic stimulate kallikrein-related peptidase 3 activity” (Medchemcomm, 2013).
Active and inactive are the calls of the source. The rule behind the calls is not given here. Bridge positions count the residues as written; N and C are the ends. Square brackets hold non-standard residues; d marks the D form. Peptide text beside a SMILES is read from it. AllylGly = C=CC[C@H](N)C(=O)O; Aoc = NCCCCCCCC(=O)O

target: T1, Prostate-specific antigen (Homo sapiens) (UniProt P07288); assay: Stimulation of KLK3 (unknown origin) proteolytic activity using chromogenic chymotrypsin MeO-Suc-Arg-Pro-Tyr-pNA substrate at 20 ug/ml pre-incubated for 30 mins before addition of substrate by […] relative to untreated control
T1 sequence (whole entry): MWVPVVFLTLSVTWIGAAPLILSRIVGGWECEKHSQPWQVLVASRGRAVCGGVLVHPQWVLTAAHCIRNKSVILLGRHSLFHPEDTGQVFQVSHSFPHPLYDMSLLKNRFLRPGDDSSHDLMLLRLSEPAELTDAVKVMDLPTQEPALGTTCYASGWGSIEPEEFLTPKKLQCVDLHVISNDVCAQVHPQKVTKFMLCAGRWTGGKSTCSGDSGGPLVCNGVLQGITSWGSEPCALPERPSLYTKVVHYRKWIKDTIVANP

| SMILES | Activity |
| --- | --- |
| CC[C@H](C)[C@@H]1NC(=O)[C@@H](NC(=O)[C@H](Cc2ccc(O)cc2)NC(C)=O)C/C=C/C[C@@H](C(=O)N[C@@H](Cc2c[nH]c3ccccc23)C(N)=O)NC(=O)[C@H](Cc2cnc[nH]2)NC(=O)[C@H](Cc2cnc[nH]2)NC(=O)[C@H](CCC(=O)O)NC1=O (Ac-Y[AllylGly]IEHH[AllylGly]W-NH2; staple (E) 2-7) | inactive |
| CC[C@H](C)[C@@H]1NC(=O)[C@@H](NC(=O)[C@H](Cc2ccc(O)cc2)NC(C)=O)C/C=C/C[C@@H](C(=O)N[C@@H](Cc2c[nH]c3ccccc23)C(=O)O)NC(=O)[C@H](Cc2cnc[nH]2)NC(=O)[C@H](Cc2cnc[nH]2)NC(=O)[C@H](CCC(=O)O)NC1=O (Ac-Y[AllylGly]IEHH[AllylGly]W-OH; staple (E) 2-7) | inactive |
| CC[C@H](C)[C@@H]1NC(=O)[C@@H]2CSSC[C@H](NC(=O)[C@H](Cc3cnc[nH]3)NC(=O)[C@H](Cc3cnc[nH]3)NC(=O)[C@H](CCC(=O)O)NC1=O)C(=O)N[C@@H](Cc1c[nH]c3ccccc13)C(=O)N[C@@H](C)C(=O)N[C@H](C(N)=O)CSSC[C@H](N)C(=O)N[C@@H](C)C(=O)N[C@@H](C)C(=O)N[C@@H](Cc1ccc(O)cc1)C(=O)N2 (H-CAAYCIEHHCWAC-NH2; disulfide 1-13, 5-10) | 127% |
| CC(C)[C@@H]1NC(=O)[C@@H](N)CSSC[C@@H](C(N)=O)NC(=O)[C@H]([C@@H](C)O)NC(=O)[C@H](Cc2c[nH]c3ccccc23)NC(=O)[C@H](C)NC(=O)[C@@H]2CSSC[C@H](NC(=O)[C@H](C)NC(=O)[C@H](Cc3ccc(O)cc3)NC(=O)[C@H](C)NC1=O)C(=O)N[C@@H](CCC(=O)O)C(=O)N[C@@H](Cc1cnc[nH]1)C(=O)N2 (H-CVAYACEHCAWTC-NH2; disulfide 1-13, 6-9) | 84% |
| CC(C)[C@@H]1NC(=O)[C@@H](N)CSSC[C@@H](C(N)=O)NC(=O)[C@H]([C@@H](C)O)NC(=O)[C@H](Cc2c[nH]c3ccccc23)NC(=O)[C@@H]2CSSC[C@H](NC(=O)[C@H](Cc3ccc(O)cc3)NC(=O)[C@H](C)NC1=O)C(=O)N[C@@H](C)C(=O)N[C@@H](CCC(=O)O)C(=O)N[C@@H](Cc1cnc[nH]1)C(=O)N[C@@H](Cc1cnc[nH]1)C(=O)N2 (H-CVAYCAEHHCWTC-NH2; disulfide 1-13, 5-10) | 299% |
| CC(C)[C@@H]1NC(=O)[C@@H](N)CSSC[C@@H](C(N)=O)NC(=O)[C@H]([C@@H](C)O)NC(=O)[C@H](Cc2c[nH]c3ccccc23)NC(=O)[C@@H]2CSSC[C@H](NC(=O)[C@H](Cc3ccc(O)cc3)NC(=O)[C@H](C)NC1=O)C(=O)N[C@@H](Cc1ccccc1)C(=O)N[C@@H](CCC(=O)O)C(=O)N[C@@H](Cc1cnc[nH]1)C(=O)N[C@@H](Cc1cnc[nH]1)C(=O)N2 (H-CVAYCFEHHCWTC-NH2; disulfide 1-13, 5-10) | 583% |
| CC(C)[C@@H]1NC(=O)[C@@H](N)CSSC[C@@H](C(N)=O)NC(=O)[C@H]([C@@H](C)O)NC(=O)[C@H](Cc2c[nH]c3ccccc23)NC(=O)[C@@H]2CSSC[C@H](NC(=O)[C@H](Cc3ccc(O)cc3)NC(=O)[C@H](C)NC1=O)C(=O)NCC(=O)N[C@@H](CCC(=O)O)C(=O)N[C@@H](Cc1cnc[nH]1)C(=O)N[C@@H](Cc1cnc[nH]1)C(=O)N2 (H-CVAYCGEHHCWTC-NH2; disulfide 1-13, 5-10) | 152% |
| CC[C@H](C)[C@@H]1NC(=O)[C@@H]2CSSC[C@H](NC(=O)[C@H](C)NC(=O)[C@H](C)NC(=O)[C@H](C)NC1=O)C(=O)N[C@@H](Cc1c[nH]c3ccccc13)C(=O)N[C@@H]([C@@H](C)O)C(=O)N[C@H](C(N)=O)CSSC[C@H](N)C(=O)N[C@@H](C(C)C)C(=O)N[C@@H](C)C(=O)N[C@@H](Cc1ccc(O)cc1)C(=O)N2 (H-CVAYCIAAACWTC-NH2; disulfide 1-13, 5-10) | 165% |
| CC[C@H](C)[C@@H]1NC(=O)[C@@H]2CSSC[C@H](NC(=O)[C@H](Cc3cnc[nH]3)NC(=O)[C@H](C)NC(=O)[C@H](C)NC1=O)C(=O)N[C@@H](Cc1c[nH]c3ccccc13)C(=O)N[C@@H]([C@@H](C)O)C(=O)N[C@H](C(N)=O)CSSC[C@H](N)C(=O)N[C@@H](C(C)C)C(=O)N[C@@H](C)C(=O)N[C@@H](Cc1ccc(O)cc1)C(=O)N2 (H-CVAYCIAAHCWTC-NH2; disulfide 1-13, 5-10) | 476% |
| CC[C@H](C)[C@@H]1NC(=O)[C@@H]2CSSC[C@H](NC(=O)[C@H](C)NC(=O)[C@H](Cc3cnc[nH]3)NC(=O)[C@H](C)NC1=O)C(=O)N[C@@H](Cc1c[nH]c3ccccc13)C(=O)N[C@@H]([C@@H](C)O)C(=O)N[C@H](C(N)=O)CSSC[C@H](N)C(=O)N[C@@H](C(C)C)C(=O)N[C@@H](C)C(=O)N[C@@H](Cc1ccc(O)cc1)C(=O)N2 (H-CVAYCIAHACWTC-NH2; disulfide 1-13, 5-10) | 239% |
| CC[C@H](C)[C@@H]1NC(=O)[C@@H]2CSSC[C@H](NC(=O)[C@H](C)NC(=O)[C@H](C)NC(=O)[C@H](CCC(=O)O)NC1=O)C(=O)N[C@@H](Cc1c[nH]c3ccccc13)C(=O)N[C@@H]([C@@H](C)O)C(=O)N[C@H](C(N)=O)CSSC[C@H](N)C(=O)N[C@@H](C(C)C)C(=O)N[C@@H](C)C(=O)N[C@@H](Cc1ccc(O)cc1)C(=O)N2 (H-CVAYCIEAACWTC-NH2; disulfide 1-13, 5-10) | 226% |
| CC[C@H](C)[C@@H]1NC(=O)[C@@H]2CSSC[C@H](NC(=O)[C@H](Cc3cnc[nH]3)NC(=O)[C@H](Cc3cnc[nH]3)NC(=O)[C@H](CCC(=O)O)NC1=O)C(=O)N[C@@H](Cc1c[nH]c3ccccc13)C(=O)N[C@@H]([C@@H](C)O)C(=O)N[C@H](C(=O)O)CSSC[C@H](N)C(=O)N[C@@H](C(C)C)C(=O)N[C@@H](C)C(=O)N[C@@H](Cc1ccc(O)cc1)C(=O)N2 (H-CVAYCIEHHCWTC-OH; disulfide 1-13, 5-10) | 625% |
| CC(C)C[C@@H]1NC(=O)[C@@H]2CSSC[C@H](NC(=O)[C@H](Cc3cnc[nH]3)NC(=O)[C@H](Cc3cnc[nH]3)NC(=O)[C@H](CCC(=O)O)NC1=O)C(=O)N[C@@H](Cc1c[nH]c3ccccc13)C(=O)N[C@@H]([C@@H](C)O)C(=O)N[C@H](C(N)=O)CSSC[C@H](N)C(=O)N[C@@H](C(C)C)C(=O)N[C@@H](C)C(=O)N[C@@H](Cc1ccc(O)cc1)C(=O)N2 (H-CVAYCLEHHCWTC-NH2; disulfide 1-13, 5-10) | 436% |
| CC(C)[C@@H]1NC(=O)[C@@H](N)CSSC[C@@H](C(=O)O)NC(=O)[C@H]([C@@H](C)O)NC(=O)[C@H](Cc2c[nH]c3ccccc23)NC(=O)[C@@H]2C/C=C/C[C@H](NC(=O)[C@H](Cc3ccc(O)cc3)NC(=O)[C@H](C)NC1=O)C(=O)N[C@@H](Cc1ccccc1)C(=O)N[C@@H](CCC(=O)O)C(=O)N[C@@H](Cc1cnc[nH]1)C(=O)N[C@@H](Cc1cnc[nH]1)C(=O)N2 (H-CVAY[AllylGly]FEHH[AllylGly]WTC-OH; disulfide 1-13; staple (E) 5-10) | 223% |
| CC[C@H](C)[C@@H]1NC(=O)[C@@H]2C/C=C/C[C@H](NC(=O)[C@H](Cc3cnc[nH]3)NC(=O)[C@H](C)NC(=O)[C@H](C)NC1=O)C(=O)N[C@@H](Cc1c[nH]c3ccccc13)C(=O)N[C@@H]([C@@H](C)O)C(=O)N[C@H](C(=O)O)CSSC[C@H](N)C(=O)N[C@@H](C(C)C)C(=O)N[C@@H](C)C(=O)N[C@@H](Cc1ccc(O)cc1)C(=O)N2 (H-CVAY[AllylGly]IAAH[AllylGly]WTC-OH; disulfide 1-13; staple (E) 5-10) | 225% |
| CC[C@H](C)[C@@H]1NC(=O)[C@@H]2C/C=C/C[C@H](NC(=O)[C@H](Cc3cnc[nH]3)NC(=O)[C@H](Cc3cnc[nH]3)NC(=O)[C@H](CCC(=O)O)NC1=O)C(=O)N[C@@H](Cc1c[nH]c3ccccc13)C(=O)N[C@@H]([C@@H](C)O)C(=O)N[C@H](C(=O)O)CSSC[C@H](N)C(=O)N[C@@H](C(C)C)C(=O)N[C@@H](C)C(=O)N[C@@H](Cc1ccc(O)cc1)C(=O)N2 (H-CVAY[AllylGly]IEHH[AllylGly]WTC-OH; disulfide 1-13; staple (E) 5-10) | 189% |
| CC(C)[C@@H]1NC(=O)[C@@H](N)CSSC[C@@H](C(=O)O)NC(=O)[C@H]([C@@H](C)O)NC(=O)[C@H](Cc2c[nH]c3ccccc23)NC(=O)CCCCCCCNC(=O)[C@H](Cc2ccc(O)cc2)NC(=O)[C@H](C)NC1=O (H-CVAY[Aoc]WTC-OH; disulfide 1-8) | inactive |

target: T1, Prostate-specific antigen (Homo sapiens); assay: Stimulation of KLK3 (unknown origin) proteolytic activity using chromogenic chymotrypsin MeO-Suc-Arg-Pro-Tyr-pNA substrate at 200 ug/ml pre-incubated for 30 mins before addition of substrate by […] relative to untreated control

| SMILES | fold change (FC) |
| --- | --- |
| CC(C)[C@@H]1NC(=O)[C@@H](N)CSSC[C@@H](C(=O)O)NC(=O)[C@H]([C@@H](C)O)NC(=O)[C@H](Cc2c[nH]c3ccccc23)NC(=O)[C@@H]2C/C=C/C[C@H](NC(=O)[C@H](Cc3ccc(O)cc3)NC(=O)[C@H](C)NC1=O)C(=O)N[C@@H](Cc1ccccc1)C(=O)N[C@@H](CCC(=O)O)C(=O)N[C@@H](Cc1cnc[nH]1)C(=O)N[C@@H](Cc1cnc[nH]1)C(=O)N2 (H-CVAY[AllylGly]FEHH[AllylGly]WTC-OH; disulfide 1-13; staple (E) 5-10) | 4 |
| CC[C@H](C)[C@@H]1NC(=O)[C@@H]2C/C=C/C[C@H](NC(=O)[C@H](Cc3cnc[nH]3)NC(=O)[C@H](C)NC(=O)[C@H](C)NC1=O)C(=O)N[C@@H](Cc1c[nH]c3ccccc13)C(=O)N[C@@H]([C@@H](C)O)C(=O)N[C@H](C(=O)O)CSSC[C@H](N)C(=O)N[C@@H](C(C)C)C(=O)N[C@@H](C)C(=O)N[C@@H](Cc1ccc(O)cc1)C(=O)N2 (H-CVAY[AllylGly]IAAH[AllylGly]WTC-OH; disulfide 1-13; staple (E) 5-10) | 4 |
